Experimental data as given in ChEMBL document CHEMBL3885861, “Open TG-GATES”.

Organism: Rattus norvegicus
Experiment: Open TG-GATES - Regimen: Daily Repeat
Type: toxicity, organism-based, Sprague-Dawley
Set-up: regimen Daily Repeat, gender Male, age 6 weeks
Conditions: in vivo, po, 30 mg/kg, route gavage, dose level Low; for APTT / Bas / Eos / Fbg / Hb / Ht / Lym / MCH / MCHC / MCV / Mono / Neu / PT / Plat / RBC / Ret / WBC: tissue Blood; for KIDNEY_L / KIDNEY_R / KIDNEY_TOTAL: tissue Kidney; for LIVER: tissue Liver; for A/G / ALP / ALT / AST / BUN / CRE / Ca / Cl / DBIL / GLC / IP / K / LDH / Na / PL / RALB / TBIL / TC / TG / TP / gamma-GTP: tissue Plasma

## Clc1c(Cl)c(Cl)c(Cl)c(Cl)c1Cl [PERCHLOROBENZENE]
72 h, time 3 day
  TERMINAL_BW: 223.9 g
  APTT: 16.2 s
  Bas: 0%
  Eos: 1.2%
  Fbg: 215.4 mg/dL
  Hb: 13.9 g/dL
  Ht: 41.8%
  Lym: 72.2%
  MCH: 21.8 pg
  MCHC: 33.3%
  MCV: 65.6 fL
  Mono: 6.8%
  Neu: 19.6%
  PT: 11.5 s
  Plat: 98.9 x10_4/uL
  RBC: 637.6 x10_4/ul
  Ret: 7.6%
  WBC: 102.3 x10_2/uL
  KIDNEY_L: 1.1 g
  KIDNEY_R: 1.1 g
  KIDNEY_TOTAL: 2.2 g
  LIVER: 12.4 g
  A/G: 2.2
  ALP: 816 IU/L
  ALT: 41.6 IU/L
  AST: 67 IU/L
  BUN: 14.6 mg/dL
  CRE: 0.5 mg/dL
  Ca: 10.5 mg/dL
  Cl: 105.6 meq/L
  DBIL: 0.028 mg/dL
  GLC: 194.4 mg/dL
  IP: 8.3 mg/dL
  K: 5.1 meq/L
  LDH: 104 IU/L
  Na: 139.6 meq/L
  PL: 143.8 mg/dL
  RALB: 3.9 g/dL
  TBIL: 0.4 mg/dL
  TC: 82 mg/dL
  TG: 79.8 mg/dL
  TP: 5.7 g/dL
  gamma-GTP: 1.4 IU/L
[…], time 7 day
  TERMINAL_BW: 255.4 g
  APTT: 16.5 s
  Bas: 0%
  Eos: 1.4%
  Fbg: 225 mg/dL
  Hb: 14 g/dL
  Ht: 42%
  Lym: 79.6%
  MCH: 21.1 pg
  MCHC: 33.4%
  MCV: 63.3 fL
  Mono: 5.2%
  Neu: 14.2%
  PT: 11.6 s
  Plat: 116.4 x10_4/uL
  RBC: 663.6 x10_4/ul
  Ret: 5.4%
  WBC: 97.6 x10_2/uL
  KIDNEY_L: 1.2 g
  KIDNEY_R: 1.2 g
  KIDNEY_TOTAL: 2.4 g
  LIVER: 14.7 g
  A/G: 2.1
  ALP: 719.8 IU/L
  ALT: 33.2 IU/L
  AST: 55.8 IU/L
  BUN: 15.8 mg/dL
  CRE: 0.6 mg/dL
  Ca: 10.4 mg/dL
  Cl: 104.8 meq/L
  DBIL: 0.002 mg/dL
  GLC: 190.6 mg/dL
  IP: 7.9 mg/dL
  K: 5 meq/L
  LDH: 93.6 IU/L
  Na: 137.6 meq/L
  PL: 166.4 mg/dL
  RALB: 4 g/dL
  TBIL: 0.5 mg/dL
  TC: 89.4 mg/dL
  TG: 129.8 mg/dL
  TP: 5.9 g/dL
  gamma-GTP: 1.2 IU/L
[…], time 14 day
  TERMINAL_BW: 320.4 g
  APTT: 17.7 s
  Bas: 0%
  Eos: 1.6%
  Fbg: 225.8 mg/dL
  Hb: 14.4 g/dL
  Ht: 43%
  Lym: 66.8%
  MCH: 20.5 pg
  MCHC: 33.5%
  MCV: 61.3 fL
  Mono: 12%
  Neu: 19.6%
  PT: 11.9 s
  Plat: 119 x10_4/uL
  RBC: 702.6 x10_4/ul
  Ret: 4.3%
  WBC: 113.1 x10_2/uL
  KIDNEY_L: 1.3 g
  KIDNEY_R: 1.4 g
  KIDNEY_TOTAL: 2.7 g
  LIVER: 20.2 g
  A/G: 1.8
  ALP: 589.2 IU/L
  ALT: 35.4 IU/L
  AST: 61.8 IU/L
  BUN: 17.6 mg/dL
  CRE: 0.6 mg/dL
  Ca: 10.4 mg/dL
  Cl: 105.4 meq/L
  DBIL: 0.004 mg/dL
  GLC: 173.2 mg/dL
  IP: 7.1 mg/dL
  K: 4.9 meq/L
  LDH: 84.6 IU/L
  Na: 139.6 meq/L
  PL: 201 mg/dL
  RALB: 4 g/dL
  TBIL: 0.4 mg/dL
  TC: 120.6 mg/dL
  TG: 119.6 mg/dL
  TP: 6.2 g/dL
  gamma-GTP: 2 IU/L
[…], time 28 day
  TERMINAL_BW: 413.2 g
  APTT: 21.6 s
  Bas: 0%
  Eos: 1.8%
  Fbg: 258.6 mg/dL
  Hb: 15 g/dL
  Ht: 44.8%
  Lym: 69.8%
  MCH: 20.4 pg
  MCHC: 33.4%
  MCV: 61 fL
  Mono: 12%
  Neu: 16.2%
  PT: 13.2 s
  Plat: 102.4 x10_4/uL
  RBC: 735 x10_4/ul
  Ret: 3%
  WBC: 113.2 x10_2/uL
  KIDNEY_L: 1.7 g
  KIDNEY_R: 1.7 g
  KIDNEY_TOTAL: 3.4 g
  LIVER: 27.3 g
  A/G: 1.6
  ALP: 345.6 IU/L
  ALT: 35.6 IU/L
  AST: 55.2 IU/L
  BUN: 18.6 mg/dL
  CRE: 0.7 mg/dL
  Ca: 10.8 mg/dL
  Cl: 105 meq/L
  DBIL: 0.004 mg/dL
  GLC: 160.4 mg/dL
  IP: 7 mg/dL
  K: 4.7 meq/L
  LDH: 75 IU/L
  Na: 141.2 meq/L
  PL: 190.6 mg/dL
  RALB: 4.4 g/dL
  TBIL: 0.4 mg/dL
  TC: 118 mg/dL
  TG: 127.4 mg/dL
  TP: 7.2 g/dL
  gamma-GTP: 3.2 IU/L
